The numbers were not newly measured in patent publication US20080003280A1, “Combination cough treatment compounds and method of treating common coughs” (priority 2006, published 2008), which cites them from elsewhere.

Data set [1] deals with cough. To be noted: patients with an upper respiratory tract infection; in combination with a decongestant.
Data set [2] has as its system cough.
Data set [3] relates to cough induced with a capsaicin challenge.

Turning to `CN(C)CCC(c1ccc(Br)cc1)c1ccccn1` (stereo not drawn) [brompheniramine], the effect on cough result in data set [1] is “improvement in cough”.

Turning to `COc1ccc2c(c1)[C@]13CCCC[C@@H]1[C@H](C2)N(C)CC3` [dextromethorphan], the cough suppression entry in data set [2] (60 mg/dose in adults) is on record as “Significant cough suppression”. Moreover, the antitussive effect result in data set [2] (adults, dose 15-30 mg (30 mg in FIG. 4), versus placebo) is reported as “no greater than placebo”.

In the case of `Cn1cnc2c1c(=O)[nH]c(=O)n2C` [Theobromine, 3,7-dihydro-3,7-dimethyl-1H-purine-2,6-dione], in data set [3] (discovered in the same study), the mucociliary clearance entry is recorded as “stimulates mucociliary clearance” and the toxicity result was “low toxicity”. The antitussive effect result in data set [3] (patients, capsaicin challenge, in comparison to codeine and caffeine, FIG. 2) is “strong and long lasting antitussive effect, comparable, in fact to codeine”.
